Data as given in paper PMC11144275 (The Lancet. Infectious diseases, 2019).
Where a name gives a salt, the structure may show the parent alone.

How the values were obtained:
EBOV-Ituri = experiment: microbe, parasite or virus in culture; assay type: cell-based, Ebola virus
EBOV-Makona = experiment: microbe, parasite or virus in culture; assay type: cell-based, Ebola virus

Row | SMILES | EBOV-Ituri Selectivity index (EBOV-Ituri) | EBOV-Makona Selectivity index (EBOV-Makona) | CC50 (Huh-7 cells) | EC50 (EBOV-Ituri; Zaire ebolavirus, Huh-7, read-out: EC50 EBOV-Ituri) | EC50 (EBOV-Makona; Zaire ebolavirus, Huh-7, read-out: EC50 EBOV-Makona)
1 | Nc1ccn([C@@H]2O[C@H](CO)[C@@H](O)[C@H]2F)c(=O)n1 [2′-deoxy-2′-fluorocytidine] | >14 | >16 | – | – | –
2 | NCC(=O)Nc1ccc(-n2nc(C(F)(F)F)cc2-c2ccc3c(ccc4ccccc43)c2)cc1 [AR-12] | – | – | 3·67 (0·14) μM | – | –
3 | CCN(CC)CCOc1ccc(C(=C(Cl)c2ccccc2)c2ccccc2)cc1 [Clomifene citrate] | – | – | 8·43 (1·08) μM | – | –
4 | COc1c(C)c2c(c(O)c1C/C=C(\C)CCC(=O)OCCN1CCOCC1)C(=O)OC2 [Mycophenolate mofetil] | 89 | 97 | 14·2 (4·3) μM | – | –
5 | CCC(CC)COC(=O)[C@H](C)N[P@](=O)(OC[C@H]1O[C@@](C#N)(c2ccc3c(N)ncnn23)[C@H](O)[C@@H]1O)Oc1ccccc1 [Remdesivir] | – | – | 3·63 (2·88) μM | 13 nM | 12 nM
6 | NC(=O)c1ncn([C@@H]2O[C@H](CO)[C@@H](O)[C@H]2O)n1 [Ribavirin] | >3 | >4 | – | – | –
7 | CC/C(=C(\c1ccccc1)c1ccc(OCCN(C)C)cc1)c1ccccc1 [Tamoxifen] | – | – | 16·29 (12·05) μM | – | –
8 | CN(C)CCOc1ccc(/C(=C(/CCCl)c2ccccc2)c2ccccc2)cc1 [Toremifene citrate] | >625 | >250 | – | – | –
